Test results reported in patent EP4567115A1, “METHOD FOR PRODUCING RIBOSOME IN CELL-FREE PROTEIN SYNTHESIS SYSTEM” (priority 2022, dated 2024).

How the values were obtained:
Assay type in all cases: biochemical, E. coli
[1] = tested on: native ribosome (Escherichia coli); assay: Bulk assay of native ribosome translational activity (LacZ reporter) with or without thiostrepton in the second reaction; details: in the presence of thiostrepton (120 nM, Fig. 5a); pT7PCONS_EpsA20_wtSD_lacZ reporter
Protocol: (§1) For the second reaction, a second reaction solution was prepared which contained 3.6 µL of the cell extract, an antibiotic (200 µM spectinomycin, 20 µg/mL streptomycin, 3 mM clindamycin, or 240 nM thiostrepton), 3 nM of the reporter plasmid, and 1 mM of IPTG. Note that when the reporter plasmid expressed LacZ, the second reaction solution included 66 µM of 5-chloromethylfluorescein di-β-D-galactopyranoside (CMFDG; Invitrogen, Waltham, MA, USA) as a substrate for LacZ. In the second reaction, 15 µL of the second reaction solution was added to and mixed with 15 µL of the solution after the first reaction, and the signal of the reporter was then measured. […] The signal of the reporter was quantified at λex = 485 nm and λem = 535 nm by using a fluorescence microplate reader, Fluoroskan Ascent FL™ (Thermo Fisher Scientific) or Infinite® 200 PRO (TECAN, Mannedorf, Switzerland).
(§2) The in vitro production of ribosomal LSU was specifically performed by the following procedure. […] The fluorescence of the reaction solution was measured by a bulk assay in the same manner as in the case of the SSU.
(§3) Thiostrepton is known to inactivate an LSU by binding to 50S r-protein L11. […] In the second reaction, the translational activity of the ribosomal LSU was then detected by a bulk assay using the pT7PCONS_EpsA20_wtSD_lacZ reporter in the presence or absence of thiostrepton.

[2] = tested on: LSU formed using 32 different LSU r-protein genes excluding r-protein L11 gene; assay: Bulk assay of in vitro formed LSU lacking r-protein L11 (LacZ reporter) in the presence of thiostrepton; details: in the presence of thiostrepton (120 nM, Fig. 5b); LSU formed without r-protein L11 gene
Protocol: as §1, §2, §3

[3] = tested on: endogenous ribosome; assay: Spectinomycin concentration optimisation, sonicated S12 cell extract with pT7_wtSD_LacZ reporter; details: spectinomycin concentration 5 mM
Protocol: Next, the optimal concentration of spectinomycin was examined. BL21 Star™ (DE3) lacZ::frt was transformed with a plasmid containing rRNA with or without C1192U spectinomycin resistance (SpcR). These bacterial strains were cultured in the presence of 0.1 mM IPTG for 3 hours, and the sonicated S12 cell extract and pT7_wtSD_LacZ reporter were mixed at various spectinomycin concentrations. […] Therefore, in the following experiments, the spectinomycin concentration was set to 5 mM unless otherwise specified.

[4] = tested on: native ribosomes; assay: Femtoliter droplet assay, control cell extract with pT7_oSD_or1_LacZ reporter; details: 100 µM spectinomycin, 5 nM pT7_oSD_or1_LacZ reporter
Protocol: A mixed oil consisting of light mineral oil (Sigma-Aldrich Corporation, St. Louis, MO, USA), 4.5% sorbitan monooleate (Nacalai Tesque), and 0.5% Triton® X-100 (Nacalai Tesque) was provided. The solution after the second reaction and the mixed oil were mixed and a microtube (Maruemu Corporation, Osaka, Japan) was tapped 20 times to obtain an emulsion. The resulting emulsion was incubated at 37°C for 2 hours to 17 hours, and bright field and fluorescence images of the droplets were acquired over time using a confocal fluorescence microscope LSM700 (Carl Zeiss AG, Oberkochen, Germany). The 488 nm laser was focused using an oil-immersion objective lens (Plan-Apochromat 40x/1.4 Oil DIC M27, Carl Zeiss AG) and oil-immersion oil (ImmersolTM518F, Carl Zeiss AG).
Next, a control experiment was performed using a control cell extract containing only native ribosomes and a pT7_oSD_or1_LacZ reporter. The control cell extract was mixed with 5 nM pT7_oSD_or1_LacZ reporter. In this condition, no fluorescence from native ribosomes was detected in the bulk assay (Fig. 10d).

[5] = biological target: T1, wild-type 30S r-protein S12 (Escherichia coli, UniProt P0A7S3); assay: Bulk assay of in vitro produced 70S ribosome with wild-type S12 (pT7_oSD_or1_LacZ reporter), with streptomycin; details: wild-type 30S r-protein S12 gene; in the presence of spectinomycin and streptomycin
T1 construct: made in house; host or cells: cell-free transcription/translation in E. coli S150 cell extract (first reaction)
Protocol: as §1
(§4) A gene encoding a K43T mutant of 30S r-protein S12, which mutant confers streptomycin resistance to ribosomes, was used to produce a 70S ribosome with streptomycin resistance. […] In the second reaction, the translational activity of the ribosomal SSU was then detected by a bulk assay using the pT7_oSD_or1_LacZ reporter in the presence of spectinomycin and in the presence or absence of streptomycin.

[6] = biological target: T2, K43T mutant of 30S r-protein S12 (Escherichia coli, UniProt P0A7S3, K43T); assay: Bulk assay of in vitro produced 70S ribosome with S12 K43T mutant (pT7_oSD_or1_LacZ reporter), with streptomycin; details: gene encoding K43T mutant of 30S r-protein S12; in the presence of spectinomycin and streptomycin
T2 construct: made in house; host or cells: cell-free transcription/translation in E. coli S150 cell extract (first reaction)
Protocol: as §1, §4

[7] = biological target: T3, 30S r-protein S12 K43T mutant (Escherichia coli, UniProt P0A7S3, K43T); assay: Bulk assay of in vitro produced SSU with S12 K43T mutant, spectinomycin and streptomycin in the second reaction; details: SSU only; gene encoding 30S r-protein S12 K43T mutant; in the presence of spectinomycin and streptomycin
T3 construct: made in house; host or cells: cell-free transcription/translation in E. coli S150 cell extract (first reaction)
Protocol: as §1
The in vitro production of ribosomal SSU was specifically performed by the following procedure. […] The fluorescence of the reaction solution was measured by a bulk assay or a femtoliter droplet assay. In the bulk assay, the reporter signal was kinetically measured at λex = 485 nm and λem = 535 nm by using a Fluoroskan Ascent FL™ (Thermo Fisher Scientific) or Infinite® 200 PRO (TECAN) at 37°C for 120 minutes, 720 minutes, or 900 minutes. […]

With `C=C(NC(=O)C(=C)NC(=O)c1csc(C2=N[C@@H]3c4csc(n4)[C@H]4NC(=O)c5csc(n5)[C@H]([C@](C)(O)[C@@H](C)O)NC(=O)[C@H]5CSC(=N5)/C(=C/C)NC(=O)[C@H]([C@@H](C)O)NC(=O)c5csc(n5)[C@]3(CC2)NC(=O)[C@H](C)NC(=O)C(=C)NC(=O)[C@H](C)NC(=O)[C@H]([C@@H](C)CC)N[C@@H]2C=Cc3c([C@H](C)O)cc(nc3[C@H]2O)C(=O)O[C@@H]4C)n1)C(N)=O` [thiostrepton] the “signal of LSU (activity of the native ribosome)” value [1] was “the signal of LSU disappeared” and the LSU signal [2] was “An LSU signal was detected”.
`CN[C@@H]1[C@H](O)[C@H](NC)[C@H]2O[C@@]3(O)C(=O)C[C@@H](C)O[C@H]3O[C@@H]2[C@H]1O` [spectinomycin] was tested, and the “activity of the endogenous ribosome” value [3] was “strongly suppressed” and the “fluorescence derived from native ribosomes” value [4] was “fluorescence derived from native ribosomes can be removed”.
In the case of `[H]/N=C(/N)N[C@H]1[C@H](O)[C@@H](O)[C@H](O[C@@H]2O[C@@H](C)[C@](O)(C=O)[C@H]2O[C@@H]2O[C@@H](CO)[C@H](O)[C@@H](O)[C@@H]2NC)[C@@H](N/C(N)=N\[H])[C@@H]1O` [streptomycin], the “reporter signal (translational activity of the ribosomal SSU)” value [5] is reported as “no signal was detected”, the “reporter signal (translational activity of the ribosomal SSU)” value [6] is reported as “a signal was detected” and the reporter signal [7] is reported as “the reporter signal was not affected”.
